Laboratory results taken from paper PMC6054100, “Exploring the chemical space of the lysine-binding pocket of the first kringle domain of hepatocyte growth factor/scatter factor (HGF/SF) yields a new class of inhibitors of HGF/SF-MET binding” (Chemical Science, 2015).

Experiments:
[1] = target: T1, lysine-binding pocket of the kringle domain of NK1 (Homo sapiens, UniProt P14210); experiment: Soaking into NK1 apo crystals, X-ray crystallography; settings: soaked into NK1 apo crystals
T1 construct: made in house; host or cells: Pichia pastoris
T1 sequence (P14210 32-210 isoform P14210-6 limits assumed): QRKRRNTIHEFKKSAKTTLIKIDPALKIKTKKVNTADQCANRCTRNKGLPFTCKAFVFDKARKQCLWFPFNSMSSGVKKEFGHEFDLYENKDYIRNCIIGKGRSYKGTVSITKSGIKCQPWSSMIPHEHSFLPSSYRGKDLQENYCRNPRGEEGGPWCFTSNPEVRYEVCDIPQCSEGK
Experimental: Next, three classes of piperazine-like sulphonated compounds containing piperazine ((H)EPPS and PIPES), morpholine (MES and MOPS), or cyclohexane (CHES and CAPS) rings were studied for their binding to NK1 (Table 1), alongside another five sulphonated compounds selected from a chemical fragment library (Table 2).
NK1 buffered in 150 mM NaCl, 50 mM Tris, pH 7.5 (apo-NK1 and all soaking experiments) was concentrated to ∼20 mg mL^–1 using a Vivaspin device with a 10 kDa cut-off membrane (Sartorius Biolab). Crystallisation was carried out in Linbro plates by the vapour diffusion hanging drop technique using a protein : precipitant ratio of 1 : 1 at 20 °C. Previously NK1 has been crystallised in 18% PEG 4000, 200 mM sodium acetate and 150 mM Tris pH 8.5 as precipitant.[19] Here final crystallisation conditions (19% PEG 4000, 200 mM sodium acetate and 150 mM Tris pH 7.5) were optimised around those to achieve high-resolution apo structure. Details of compound soaking, X-ray data collection and structure determination are given in the ESI ^† section of the manuscript. […]
For this, 1 M stock solutions were prepared in DMSO (fragments) or water (piperazine- like compounds) and the pH adjusted to a value within their buffering range with either HCl or NaOH. The seven piperazine- like compounds and their respective pH are: HEPES (pH 7.6), (H)EPPS (pH 7.4), PIPES (pH 7.0), MES (pH 5.8), MOPS (pH 7.2), CHES (pH 8.6) and CAPS (pH 9.7). Secondary stocks of the compounds at 50 mM were prepared in the […]
respective mother liquor and soaked for up to 48 hours.
MB605 was solubilised in 50% DMSO at 20 mM concentration (1% f inal DMSO concentration in the drop) in order to minimize adverse effects of DMSO on the protein crystal. 25% ethylene glycol was used as the cryoprotective agent.
X-ray data collection and processing
X-ray datasets were collected either at the European Synchrotron Radiation Facility (ESRF, Grenoble, France), the Diamond Light Source (DLS, Oxford, UK) or in-house using the X8 PROTEUM (Bruker AXS) at the Department of Biochemistry, University of Cambridge.
Datasets of at least 180° were collected. Raw data collected at synchrotrons were integrated, merged, scaled and reduced using DENZO and […].2 Raw data […]
collected in- house were integrated, merged, scaled and reduced using the PROTEUM 2 software package .3 The CCP4 suite of crystallographic programs (Collaborative

NK1 [2] = target: T2, NK1 (Homo sapiens, UniProt P14210); experiment: SPR steady-state binding to immobilized NK1 (Biacore T100); set-up: made in house; host or cells: Pichia pastoris
T2 sequence (P14210 32-210 isoform P14210-6 limits assumed): as above
Method in brief: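 NK1 amine-coupled to a CM5 chip at 6000 RU; compound serial dilutions in PBS pH 7.4 with 0.05% Tween 20 injected at 30 μL min^–1, 1 min contact and 1 min dissociation. Binding constants derived from steady-state sensorgram analysis.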

NK1 [3] = target: T2, NK1; experiment: 1H-15N TROSY-HSQC NMR chemical shift titration of 15N-labelled NK1; format: binding; set-up: made in house; host or cells: Pichia pastoris
Experimental: Ligand screening was performed by monitoring the chemical shift variations in ^1H-^15N TROSY-HSQC NMR spectra of the uniformly [^15N]-labelled NK1 protein (Fragai et al. 2015, in prep.) upon the addition of increasing concentrations of the investigated compounds.[43]–[45] The experiments were performed using 0.18 mM protein samples in 25 mM Tris, 100 mM NaCl and 0.01% sodium azide, at pH 7.2 with 10% D2O. The spectra were recorded at 310 K on a Bruker AVANCE 900 MHz spectrometer equipped with a TXI cryo-probe. Sample solutions were prepared from 1 M or 100 mM DMSO stock solutions of the ligands. The dissociation constant values (KD) were calculated by plotting the weighted average ^1H and ^15N chemical shifts of the residues experiencing significant variations as a function of ligand concentration added during the titration and considering the one site binding model.[46]

Structure (SMILES): O=C(O)CCc1ccco1 [MB605]
- binding in the lysine-binding pocket (crystal structure) [1]: binds in the lysine-binding pocket
- affinity for NK1 relative to HEPES (NK1 [2]; fold better than HEPES): about ten times better affinity
- Kd (NK1 [2]; steady-state binding constant from SPR, fragment hits (Table 3, text), read-out: KD): 310 ± 40 µM
- variation in chemical shifts for NK1 residues (NK1 [3]; 1H-15N TROSY-HSQC, residues in and around the lysine-binding pocket): showed variation in chemical shifts
- Kd (NK1 [3]; NMR chemical shift titration, read-out: KD): 110 µM
